Results: US12180193B2, “Accelerating fibrosarcoma protein degrading compounds and associated methods of use” (Arvinas Operations, Inc., priority 2020, dated 2024)

Assays:
[1] = biological target: T1, BRAF V600E (Homo sapiens, UniProt P15056, V600E); assay: Cellular assay of target protein degradation, T-Rex 293 cells stably transfected with HA-BRAF_V600E (HA immunofluorescence, high content imaging); format: cell-based; details: T-Rex 293 HA-BRAF V600E; for DC50: half maximal degradation, read-out: BRaf V600E DC50; for Dmax: maximum degradation observed
T1 construct: expressed in transfected cells
In short: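 Doxycycline-induced (1 ng/mL) cells were treated 24 h at 37 °C with compound at 1 μM to 0.1 nM final in 0.1% DMSO. After fixation, permeabilization and blocking, anti-HA staining was imaged by high-content reading; DC50 and Dmax (% of control) were derived.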

[2] = biological target: T2, BRAF G466V (Homo sapiens, UniProt P15056, G466V); assay: Cellular assay of target protein degradation, T-Rex 293 cells stably transfected with HA-BRAF G466V (HA immunofluorescence, high content imaging); format: cell-based; details: T-Rex 293 HA-BRAF G466V; for DC50: half maximal degradation, read-out: BRaf G466V DC50; for Dmax: maximum degradation observed
T2 construct: expressed in transfected cells
In short: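 Cells expressing doxycycline-induced (0.75 ng/mL) HA-BRAF G466V were treated with compound at 30 nM to 3 pM in 0.1% DMSO for 24 hours at 37° C. After fixation and permeabilization, HA was immunostained and quantified by high content imaging to derive DC50 and Dmax.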

T2 sequence (P15056 whole entry G466V): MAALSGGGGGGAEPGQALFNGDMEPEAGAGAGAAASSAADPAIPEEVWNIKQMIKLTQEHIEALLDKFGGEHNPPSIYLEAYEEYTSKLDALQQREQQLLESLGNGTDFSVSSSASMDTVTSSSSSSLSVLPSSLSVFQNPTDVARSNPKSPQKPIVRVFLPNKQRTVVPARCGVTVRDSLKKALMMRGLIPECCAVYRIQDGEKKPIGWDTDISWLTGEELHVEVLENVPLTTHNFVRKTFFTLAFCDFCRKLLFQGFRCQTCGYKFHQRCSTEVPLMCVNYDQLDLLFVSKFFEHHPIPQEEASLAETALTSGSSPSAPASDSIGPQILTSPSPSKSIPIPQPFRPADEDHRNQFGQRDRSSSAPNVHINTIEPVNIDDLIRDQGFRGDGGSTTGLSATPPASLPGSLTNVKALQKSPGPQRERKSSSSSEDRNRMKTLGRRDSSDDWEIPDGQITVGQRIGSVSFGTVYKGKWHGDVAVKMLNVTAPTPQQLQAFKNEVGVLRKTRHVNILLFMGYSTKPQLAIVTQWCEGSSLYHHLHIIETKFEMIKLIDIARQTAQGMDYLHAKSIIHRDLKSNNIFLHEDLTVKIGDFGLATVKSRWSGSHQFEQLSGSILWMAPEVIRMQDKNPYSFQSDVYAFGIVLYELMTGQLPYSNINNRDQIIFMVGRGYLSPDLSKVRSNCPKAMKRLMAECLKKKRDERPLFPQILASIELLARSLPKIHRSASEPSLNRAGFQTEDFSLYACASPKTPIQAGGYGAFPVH
T1 sequence (P15056 whole entry V600E): as the sequence (P15056 whole entry G466V) above, with V466G, V600E counted along it

SMILES | DC50 [1] | Dmax [1] | DC50 [2] | Dmax [2]
CN(CC1CCN(c2ccc(-c3cnc4[nH]cc(C(=O)c5c(F)ccc(NS(=O)(=O)N6CC[C@@H](F)C6)c5F)c4c3)cc2)CC1)[C@H]1C[C@@H](Oc2ccc3c(c2)CN(C2CCC(=O)NC2=O)C3=O)C1 (stereo partly drawn) [Compound 155, (3R)-N-[2,4-difluoro-3-(5-{4-[4-({methyl[(1s,3s)-3-{[2-(2,6-dioxopiperidin-3-yl)-1-oxo-2,3-dihydro-1H-isoindol-5-yl]oxy}cyclobutyl]amino}methyl)piperidin-1-yl]phenyl}-1H-pyrrolo[2,3-b]pyridine-3-carbonyl)phenyl]-3-fluoropyrrolidine-1-sulfonamide] | 5 to 50 nM | 35 to 70% | 1 to 10 nM | > 70%
O=C1CCC(N2Cc3cc(C4CCN(CC[C@@H]5CCN(c6ccc(-c7cnc8[nH]cc(C(=O)c9c(F)ccc(NS(=O)(=O)N%10CC[C@@H](F)C%10)c9F)c8c7)cc6)C5)CC4)ccc3C2=O)C(=O)N1 (stereo partly drawn) [Compound 216, (3R)-N-[3-(5-{4-[(3R)-3-(2-{4-[2-(2,6-dioxopiperidin-3-yl)-1-oxo-2,3-dihydro-1H-isoindol-5-yl]piperidin-1-yl}ethyl)pyrrolidin-1-yl]phenyl}-1H-pyrrolo [2,3-b]pyridine-3-carbonyl)-2,4-difluorophenyl]-3-fluoropyrrolidine-1-sulfonamide] | 5 to 50 nM | < 35% | 1 to 10 nM | > 70%
COc1cc(N2CC3(CN(CC4CCN(c5ccc(-c6cnc7[nH]cc(C(=O)c8c(F)ccc(NS(=O)(=O)N9CC[C@@H](F)C9)c8F)c7c6)cc5F)CC4)C3)C2)cc2c1C(=O)N(C1CCC(=O)NC1=O)C2 (stereo partly drawn) [Compound 132, (3R)-N-[3-(5-{4-[4-({6-[2-(2,6-dioxopiperidin-3-yl)-7-methoxy-1-oxo-2,3-dihydro-1H-isoindol-5-yl]-2,6-diazaspiro[3.3]heptan-2-yl}methyl)piperidin-1-yl]-3-fluorophenyl}-1H-pyrrolo[2,3-b]pyridine-3-carbonyl)-2,4-difluorophenyl]-3-fluoropyrrolidine-1-sulfonamide] | 5 to 50 nM | 35 to 70% | < 1 nM | > 70%
O=C1CC[C@H](N2Cc3cc(N4CCC(CN5CCN(C6(c7ncc(-c8cnc9[nH]cc(C(=O)c%10c(F)ccc(NS(=O)(=O)N%11CC[C@@H](F)C%11)c%10F)c9c8)cn7)CC6)CC5)CC4)ccc3C2=O)C(=O)N1 [Compound 201, (3R)-N-[3-[5-[2-[1-[4-[[1-[2-[(3S)-2,6-dioxo-3-piperidyl]-1-oxo-isoindolin-5-yl]-4-piperidyl]methyl]piperazin-1-yl]cyclopropyl]pyrimidin-5-yl]-1H-pyrrolo[2,3-b]pyridine-3-carbonyl]-2,4-difluoro-phenyl]-3-fluoro-pyrrolidine-1-sulfonamide] | 5 to 50 nM | < 35% | 1 to 10 nM | 35 to 70%
C[C@@]12CN(CC3CCN(c4ccc5c(c4)CN([C@@H]4CCC(=O)NC4=O)C5=O)CC3)C[C@@H]1CN(c1ccc(-c3cnc4[nH]cc(C(=O)c5c(F)ccc(NS(=O)(=O)N6CC[C@@H](F)C6)c5F)c4c3)cc1)C2 [Compound 52, (3R)-N-[3-(5-{4-[(3aS,6aR)-5-[(1-{2-[(3R)-2,6-dioxopiperidin-3-yl]-1-oxo-2,3-dihydro-1H-isoindol-5-yl}piperidin-4-yl)methyl]-3a-methyl-octahydropyrrolo[3,4-c]pyrrol-2-yl]phenyl}-1H-pyrrolo[2,3-b]pyridine-3-carbonyl)-2,4-difluorophenyl]-3-fluoropyrrolidine-1-sulfonamide] | 50 to 500 nM | < 35% | 1 to 10 nM | 35 to 70%
O=C1CC[C@@H](NC(=O)N2CCCc3c(C4CCN(CC5CCN(c6ccc(-c7cnc8[nH]cc(C(=O)c9c(F)ccc(NS(=O)(=O)N%10CC[C@@H](F)C%10)c9F)c8c7)cc6)CC5)CC4)ccnc32)C(=O)N1 [Compound 367, 5-(1-{[1-(4-{3-[2,6-difluoro-3-({[(3R)-3-fluoropyrrolidin-1-yl]sulfonyl}amino)benzoyl]-1H-pyrrolo[2,3-b]pyridin-5-yl}phenyl)piperidin-4-yl]methyl}piperidin-4-yl)-N-[(3R)-2,6-dioxopiperidin-3-yl]-1,2,3,4-tetrahydro-1,8-naphthyridine-1-carboxamide] | > 500 nM |  | 1 to 10 nM | < 35%
O=C1CC[C@H](N2Cc3cc(N4CC(CN5CCN(C6(c7ncc(-c8cnc9[nH]cc(C(=O)c%10c(F)ccc(NS(=O)(=O)N%11CC[C@@H](F)C%11)c%10F)c9c8)cn7)CC6)CC5)C4)ccc3C2=O)C(=O)N1 [Compound 202, (3R)-N-(3-{5-[2-(1-{4-[(1-{2-[(3S)-2,6-dioxopiperidin-3-yl]-1-oxo-2,3-dihydro-1H-isoindol-5-yl}azetidin-3-yl)methyl]piperazin-1-yl}cyclopropyl)pyrimidin-5-yl]-1H-pyrrolo[2,3-b]pyridine-3-carbonyl}-2,4-difluorophenyl)-3-fluoropyrrolidine-1-sulfonamide] | 50 to 500 nM | 35 to 70% | 1 to 10 nM | 35 to 70%
O=C1CCC(N2Cc3cc(N4CCN(CCCC5CCN(c6ccc(-c7cnc8[nH]cc(C(=O)c9c(F)ccc(NS(=O)(=O)N%10CC[C@@H](F)C%10)c9F)c8c7)cc6)CC5)CC4)ccc3C2=O)C(=O)N1 (stereo partly drawn) [Compound 135, (3R)-N-[3-(5-{4-[4-(3-{4-[2-(2,6-dioxopiperidin-3-yl)-1-oxo-2,3-dihydro-1H-isoindol-5-yl]piperazin-1-yl}propyl)piperidin-1-yl]phenyl}-1H-pyrrolo[2,3-b]pyridine-3-carbonyl)-2,4-difluorophenyl]-3-fluoropyrrolidine-1-sulfonamide] | 5 to 50 nM | 35 to 70% | 1 to 10 nM | > 70%
O=C1CC[C@@H](NC(=O)c2ccc(N3CC4(CN(CC5CCN(c6ccc(-c7cnc8[nH]cc(C(=O)c9c(F)ccc(NS(=O)(=O)N%10CC[C@@H](F)C%10)c9F)c8c7)cc6)CC5)C4)C3)cn2)C(=O)N1 [Compound 346, 5-(6-{[1-(4-{3-[2,6-difluoro-3-({[(3R)-3-fluoropyrrolidin-1-yl]sulfonyl}amino)benzoyl]-1H-pyrrolo[2,3-b]pyridin-5-yl}phenyl)piperidin-4-yl]methyl}-2,6-diazaspiro[3.3]heptan-2-yl)-N-[(3R)-2,6-dioxopiperidin-3-yl]pyridine-2-carboxamide] | 50 to 500 nM | < 35% | 1 to 10 nM | < 35%
O=C1CC[C@@H](N2Cc3cc(N4CCN(CC5CCN(c6ccc(-c7cnc8[nH]cc(C(=O)c9c(F)ccc(NS(=O)(=O)N%10CC[C@@H](F)C%10)c9F)c8c7)cc6)CC5)CC4)ccc3C2=O)C(=O)N1 [Compound 220, (3R)-N-{3-[5-(4-{4-[(4-{2-[(3R)-2,6-dioxopiperidin-3-yl]-1-oxo-2,3-dihydro-1H-isoindol-5-yl}piperazin-1-yl)methyl]piperidin-1-yl}phenyl)-1H-pyrrolo [2,3-b]pyridine-3-carbonyl]-2,4-difluorophenyl}-3-fluoropyrrolidine-1-sulfonamide] | 5 to 50 nM | 35 to 70% | 1 to 10 nM | > 70%
O=C1CC[C@H](N2Cc3cc(C4CCN(CC5CCN(c6ccc(-c7cnc8[nH]cc(C(=O)c9c(Cl)ccc(NS(=O)(=O)N%10CC[C@@H](F)C%10)c9Cl)c8c7)cc6)CC5)CC4)ccc3C2=O)C(=O)N1 [Compound 267, (3R)-N-{2,4-dichloro-3-[5-(4-{4-[(4-{2-[(3S)-2,6-dioxopiperidin-3-yl]-1-oxo-2,3-dihydro-1H-isoindol-5-yl}piperidin-1-yl)methyl]piperidin-1-yl}phenyl)-1H-pyrrolo [2,3-b]pyridine-3-carbonyl]phenyl}-3-fluoropyrrolidine-1-sulfonamide] | 5 to 50 nM | 35 to 70% | 1 to 10 nM | 35 to 70%
COc1cc(OCCN2CCN(CCOc3ccc(-c4cnc5[nH]cc(C(=O)c6c(F)ccc(NS(=O)(=O)N7CC[C@@H](F)C7)c6F)c5c4)cc3)CC2)cc2c1C(=O)N([C@H]1CCC(=O)NC1=O)C2 [Compound 44, (3R)-N-(3-{5-[4-(2-{4-[2-({2-[(3S)-2,6-dioxopiperidin-3-yl]-7-methoxy-1-oxo-2,3-dihydro-1H-isoindol-5-yl}oxy)ethyl]piperazin-1-yl}ethoxy)phenyl]-1H-pyrrolo[2,3-b]pyridine-3-carbonyl}-2,4-difluorophenyl)-3-fluoropyrrolidine-1-sulfonamide] | 5 to 50 nM | 35 to 70% | < 1 nM | 35 to 70%
O=C1CCC(N2Cc3cc(N4CC(CN5CCC(Cc6ccc(-c7cnc8[nH]cc(C(=O)c9c(F)ccc(NS(=O)(=O)N%10CC[C@@H](F)C%10)c9F)c8c7)cc6)CC5)C4)ccc3C2=O)C(=O)N1 (stereo partly drawn) [Compound 303, (3R)-N-{3-[5-(4-{[1-({1-[2-(2,6-dioxopiperidin-3-yl)-1-oxo-2,3-dihydro-1H-isoindol-5-yl]azetidin-3-yl}methyl)piperidin-4-yl]methyl}phenyl)-1H-pyrrolo[2,3-b]pyridine-3-carbonyl]-2,4-difluorophenyl}-3-fluoropyrrolidine-1-sulfonamide] | 5 to 50 nM | 35 to 70% | 1 to 10 nM | > 70%
